# Reference: patent US20220089593A1, “PDE9 INHIBITOR AND USE THEREOF” (TRANSTHERA SCIENCES (NANJING), INC., priority 2019, published 2022)
# Test system: not listed separately
# Experiment: Dog liver microsomal stability
# Assay type: in vitro ADME
# Settings: dog liver microsomes 0.5 mg protein/mL, compound 1 μM, β-NADPH 1 mM, 37° C.
# Protocol: Test samples: the compounds disclosed herein and the compound 1-8 of patent WO2017019723A1 (prepared by referring to the examples for synthesis in WO2017019723A1) having the following structural formula: […]
# An appropriate amount of the compound was precisely weighed out and dissolved in DMSO to prepare a 5.0 mM stock solution. The 5.0 mM stock solution was diluted to 1.0 mM with DMSO, and then diluted with water to 10 μM compound working solution for later use (DMSO content in the reaction system: 0.1% v/v).
# Vd=1/protein content in liver microsomes
Compound,half-life at 1 μM [h],microsomal CLint at 1 μM [µL/min/mg]
"COC1(C)CCN(c2c(C#N)c(=O)[nH]c3cnc([C@H](C)O)cc23)CC1 (single isomer, unassigned) [Compound B, 6-(1-hydroxyethyl)-4-(4-methoxy-4-methylpiperidin-1-yl)-2-oxo-1,2-dihydro-1,7-naphthyridine-3-carbonitrile]",14.4,1.6
"COC1(C)CCN(c2c(C#N)c(=O)[nH]c3ccc(C)nc23)CC1 [Compound 166, 4-(4-methoxy-4-methylpiperidin-1-yl)-6-methyl-2-oxo-1,2-dihydro-1,5-naphthyridine-3-carbonitrile]",6.8,3.4
"CCc1ccc2[nH]c(=O)c(C#N)c(N3CCC(C)(OC)CC3)c2n1 [Compound 167, 6-ethyl-4-(4-methoxy-4-methylpiperidin-1-yl)-2-oxo-1,2-dihydro-1,5-naphthyridine-3-carbonitrile]",2.32,10
COC1(C)CCN(c2c(C#N)c(=O)[nH]c3cnc(C(C)OP(=O)([O-])[O-])cc23)CC1.[Na+].[Na+] (stereo not shown) [Compound 204],8.25,2.8
"N#Cc1c(N2CCCCCC2)c2ccccc2[nH]c1=O [Compound I-8, reference compound]",0.2,116

# Molecular target: human PDE9 (Homo sapiens, UniProt O76083)
# Experiment: not given
# Settings: background statement; cited from earlier work
# Chain of human PDE9 (O76083 whole entry): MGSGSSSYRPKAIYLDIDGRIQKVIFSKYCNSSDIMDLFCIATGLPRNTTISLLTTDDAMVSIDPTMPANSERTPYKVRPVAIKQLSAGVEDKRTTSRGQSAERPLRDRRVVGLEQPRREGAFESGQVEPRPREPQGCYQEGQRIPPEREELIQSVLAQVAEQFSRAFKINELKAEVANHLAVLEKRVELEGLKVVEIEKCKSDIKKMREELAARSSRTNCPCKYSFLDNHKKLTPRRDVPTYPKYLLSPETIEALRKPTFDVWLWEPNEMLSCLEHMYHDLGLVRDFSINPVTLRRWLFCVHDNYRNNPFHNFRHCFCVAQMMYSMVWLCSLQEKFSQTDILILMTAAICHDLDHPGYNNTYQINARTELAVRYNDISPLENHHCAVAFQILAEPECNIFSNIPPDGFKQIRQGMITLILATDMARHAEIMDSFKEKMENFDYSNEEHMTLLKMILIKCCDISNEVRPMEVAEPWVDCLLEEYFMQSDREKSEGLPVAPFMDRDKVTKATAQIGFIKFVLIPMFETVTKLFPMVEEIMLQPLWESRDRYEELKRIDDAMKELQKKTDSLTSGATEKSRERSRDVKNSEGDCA
row,Compound,inhibitory activity against PDE9
1,CC(C)Cn1c(=O)n(C)c(=O)c2[nH]cnc21 [IBMX],no inhibitory activity or low inhibitory activity
2,CC(=O)Nc1ccc(-c2c[nH]c(=O)cn2)cc1 [SKF94120],no inhibitory activity or low inhibitory activity
3,OCCN(CCO)c1nc(N2CCCCC2)c2nc(N(CCO)CCO)nc(N3CCCCC3)c2n1 [dipyridamole],no inhibitory activity or low inhibitory activity
4,COc1ccc(C2CNC(=O)C2)cc1OC1CCCC1 (stereo not shown) [rolipram],no inhibitory activity or low inhibitory activity
5,CCOC(=O)C1=C[C@]2(CC)CCCN3CCc4c(n1c1ccccc41)[C@@H]32 [vinpocetine],no inhibitory activity or low inhibitory activity

# Molecular target: T1, PDE9A2 enzyme (Homo sapiens, UniProt O76083)
# T1 construct: purchased BPS 60090
# Experiment: PDE9 enzymatic evaluation
# Assay type: biochemical
# Settings: PDE9A2 enzyme (BPS), fluorescence reading 480 nm/535 nm, room temperature
# Protocol: Preparation of the compounds: Compounds were formulated into 10 mM compound stock solution in DMSO for long term storage.
# Subsequently, 10 μL of the substrate mixture was added, and after centrifugation at 1000 rpm for 1 min, the resulting mixture was incubated at room temperature with oscillating for 30 min. Finally, stop solution was added to end the reaction, and the resulting reaction system was incubated at room temperature with oscillating for 60 min. In the maximum reading well (Max), the compound was replaced by solvent; in the minimum reading well (Min), the compound and the enzyme solution were replaced by solvent.
# Detection: the fluorescence readings (F) at 480 nm/535 nm were detected using a microplate reader.
# Calculation: The inhibition rate was calculated according to the following formula and IC50 was fitted using GraphPad Prism 5.0:
# T1 sequence (O76083 1-533 isoform O76083-2): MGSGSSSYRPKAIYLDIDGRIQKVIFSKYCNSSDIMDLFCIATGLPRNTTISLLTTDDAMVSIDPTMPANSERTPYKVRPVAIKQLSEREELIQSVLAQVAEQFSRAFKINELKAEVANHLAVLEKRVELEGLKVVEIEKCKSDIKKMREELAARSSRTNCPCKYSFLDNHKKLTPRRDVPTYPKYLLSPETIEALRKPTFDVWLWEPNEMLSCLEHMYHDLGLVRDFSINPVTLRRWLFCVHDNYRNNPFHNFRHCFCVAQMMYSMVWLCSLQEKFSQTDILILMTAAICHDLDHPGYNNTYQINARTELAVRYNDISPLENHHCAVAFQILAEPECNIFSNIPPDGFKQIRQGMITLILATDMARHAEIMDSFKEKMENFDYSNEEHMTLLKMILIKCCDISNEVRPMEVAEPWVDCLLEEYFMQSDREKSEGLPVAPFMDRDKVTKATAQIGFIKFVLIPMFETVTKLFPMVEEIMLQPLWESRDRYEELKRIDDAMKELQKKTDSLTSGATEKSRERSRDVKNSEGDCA
row,Compound,IC50 [nM]
1,"COC1(C)CCN(c2c(C#N)c(=O)[nH]c3cnc(C(C)C)cc23)CC1 [Compound 163, 6-isopropyl-4-(4-methoxy-4-methylpiperidin-1-yl)-2-oxo-1,2-dihydro-1,7-naphthyridine-3-carbonitrile]",50
2,"COC1(C)CCN(c2c(C#N)c(=O)[nH]c3cccnc23)CC1 [Compound 165, 4-(4-methoxy-4-methylpiperidin-1-yl)-2-oxo-1,2-dihydro-1,5-naphthyridine-3-carbonitrile]",24
3,"COC1(C)CCN(c2c(C#N)c(=O)[nH]c3ccc(C)nc23)CC1 [Compound 166, 4-(4-methoxy-4-methylpiperidin-1-yl)-6-methyl-2-oxo-1,2-dihydro-1,5-naphthyridine-3-carbonitrile]",19
4,"CCc1ccc2[nH]c(=O)c(C#N)c(N3CCC(C)(OC)CC3)c2n1 [Compound 167, 6-ethyl-4-(4-methoxy-4-methylpiperidin-1-yl)-2-oxo-1,2-dihydro-1,5-naphthyridine-3-carbonitrile]",11
5,"COC1(C)CCN(c2c(C#N)c(=O)[nH]c3cnc(CO)cc23)CC1 [Compound 177, 6-(hydroxymethyl)-4-(4-methoxy-4-methylpiperidin-1-yl)-2-oxo-1,2-dihydro-1,7-naphthyridine-3-carbonitrile]",15
6,"CC(O)c1cc2c(N3CCC(C)(O)CC3)c(C#N)c(=O)[nH]c2cn1 (stereo not shown) [Compound 194, 4-(4-hydroxy-4-methylpiperidin-1-yl)-6-(1-hydroxyethyl)-2-oxo-1,2-dihydro-1,7-naphthyridine-3-carbonitrile]",37
7,"CC1(C)CCN(c2c(C#N)c(=O)[nH]c3ccccc23)CC1 [Compound I-11, reference compound]",70
